Assay results reported in ChEMBL document CHEMBL5352472, “Mode of action of p-quinone derivatives with trypanocidal activity studied by experimental and in silico models” (Eur J Med Chem, 2023).

What was measured:
[1] = Cytotoxicity against mouse J774 cells after 24 hrs by WST-1 assay; assay type: toxicity, cell-based
J774 [2] = experiment: Cytotoxicity against mouse J774 cells at 10 uM after 24 hrs by WST-1 assay relative to control; assay type: toxicity, cell-based; details: j774, 24 h
Trypanosoma brucei [3] = experiment: (§1) Redox activity against blood stream form Trypanosoma brucei 427 expressing redox-sensitive green fluorescent protein fused human glutaredoxin assessed as biosensor oxidation by measuring fluorescence at 2 times EC50 incubated for 1 hr by propidium iodide staining based flow cytometric analysis relative to control; assay type: functional
[4] = Selectivity index, ratio of CC50 for cytotoxicity against mouse J774 cells to EC50 for trypanocidal activity against blood stream form Trypanosoma brucei 427; assay type: toxicity, cell-based; details: read-out: Ratio CC50/EC50
Trypanosoma brucei [5] = experiment: Trypanocidal activity against blood stream form Trypanosoma brucei 427 expressing red-shifted luciferase gene measured after 24 hrs by microplate luminometer analysis; assay type: functional, organism-based; details: Trypanosoma brucei, 427, 24 h
Trypanosoma brucei [6] = experiment: as §1, with “at 1” for “at 2”; assay type: functional
J774 [7] = experiment: Cytotoxicity against mouse J774 cells at 50 uM after 24 hrs by WST-1 assay relative to control; assay type: toxicity, cell-based; details: j774, 24 h
[8] = Selectivity index, ratio of CC50 for cytotoxicity against mouse J774 cells to EC50 for trypanocidal activity against Leishmania infantum MHOM/MA/67/ITMAP263 promastigotes; assay type: toxicity, cell-based; details: read-out: Ratio CC50/EC50
Leishmania infantum [9] = experiment: Antileishmanial activity against Leishmania infantum MHOM/MA/67/ITMAP263 promastigotes expressing red-shifted luciferase gene infected in mouse J774 cells incubated for 24 hrs by microplate luminometer analysis; assay type: functional, organism-based; details: MHOM/MA/67/ITMAP263, J774, 24 h
Trypanosoma cruzi [10] = experiment: Trypanocidal activity against Trypanosoma cruzi DM28c amastigotes expressing red-shifted luciferase gene infected in african green monkey Vero cells incubated for 72 hrs by microplate luminometer analysis; assay type: functional, organism-based
[11] = Selectivity index, ratio of CC50 for cytotoxicity against mouse J774 cells to EC50 for trypanocidal activity against Trypanosoma cruzi DM28c amastigotes; assay type: toxicity, cell-based; details: read-out: Ratio CC50/EC50
Leishmania infantum [12] = experiment: Antileishmanial activity against Leishmania infantum MHOM/MA/67/ITMAP263 promastigotes expressing red-shifted luciferase gene infected in mouse J774 cells incubated at 20 uM for 24 hrs by microplate luminometer analysis relative to control; assay type: functional
Trypanosoma cruzi [13] = experiment: Trypanocidal activity against Trypanosoma cruzi DM28c amastigotes expressing red-shifted luciferase gene infected in african green monkey Vero cells incubated at 10 uM for 72 hrs by microplate luminometer analysis relative to control; assay type: functional
Leishmania infantum [14] = experiment: Antileishmanial activity against Leishmania infantum MHOM/MA/67/ITMAP263 promastigotes expressing red-shifted luciferase gene infected in mouse J774 cells incubated at 10 uM for 24 hrs by microplate luminometer analysis relative to control; assay type: functional

EC50 (Leishmania infantum [9]) [µM] | Structure (SMILES) | CC50 at 24 h [1] [µM] | Activity (J774 [2]) [%] | Activity (Trypanosoma brucei [3]) [%] | selectivity ratio [4] | EC50 (Trypanosoma brucei [5]) [nM] | Activity (Trypanosoma brucei [6]) [%] | Activity (J774 [7]) [%] | selectivity ratio [8] | EC50 (Trypanosoma cruzi [10]) [nM] | selectivity ratio [11] | Activity (Leishmania infantum [12]) [%] | Activity (Trypanosoma cruzi [13]) [%] | Activity (Leishmania infantum [14]) [%]
 | O=C1C(Nc2ccccc2)=C(Br)C(=O)c2oc(-c3ccccc3)nc21 | < 10 | 0.5 | 95.87 | < 5 | 1900 |  |  |  |  |  |  |  | 
 | O=C1C=C(Br)C(=O)c2oc(-c3ccccc3)nc21 | < 10 | 10 | 20.95 | < 6 | 1600 |  |  |  |  |  |  |  | 
 | O=C1C=C(Oc2ccccc2)C(=O)c2sc(-c3ccccc3)nc21 | < 10 | 40 |  | < 6 | 1800 | 95.51 |  |  |  |  |  |  | 
 | O=C1C=C(Oc2ccc(F)cc2)C(=O)c2sc(-c3ccccc3)nc21 | < 10 | 5 | 92.06 | < 2 | 5000 |  |  |  |  |  |  |  | 
 | COc1ccc2cc(OC3=CC(=O)c4ccccc4C3=O)ccc2c1 | ~50 |  | 59.07 | ~10 | 5200 |  | 57 |  |  |  |  |  | 
0.035 | C[C@@H]1[C@H](O)[C@@H](C)/C=C/C=C/C=C/C=C/C=C/C=C/C=C/[C@H](O[C@@H]2O[C@H](C)[C@@H](O)[C@H](N)[C@@H]2O)C[C@@H]2O[C@](O)(C[C@@H](O)C[C@@H](O)[C@H](O)CC[C@@H](O)C[C@@H](O)CC(=O)O[C@H]1C)C[C@H](O)[C@H]2C(=O)O [AMPHOTERICIN B] | 9 |  |  |  |  |  |  | 257 |  |  |  |  | 
 | O=C1C=C(Oc2ccc3cc(O)ccc3c2)C(=O)c2ccccc21 | ~50 |  | 40.54 | ~14 | 4300 |  | 63 |  |  |  |  |  | 
 | O=C1C=C(Oc2ccc(CO)cc2)C(=O)c2ccccc21 | ~50 |  | 87.33 | ~11 | 4600 |  | 49 |  |  |  |  |  | 
 | O=C1C=CC(=O)c2sc(-c3ccccc3)nc21 | < 10 | 0 | 99.42 | < 8 | 1300 |  |  |  |  |  |  |  | 
 | CC(C)(C)c1ccc(OC2=CC(=O)c3ccccc3C2=O)cc1 | < 50 |  |  | < 9 | 5500 | 81.7 | 24 |  |  |  |  |  | 
 | CC1CS(=O)(=O)CCN1/N=C/c1ccc([N+](=O)[O-])o1 (stereo not given) [NIFURTIMOX] | 100 |  |  | 19 | 5300 |  |  |  | 700 | 142 | 137 |  | 
 | O=C1C=CC(=O)c2oc(-c3ccccc3)cc21 | 118 |  | 95.33 | 44 | 2700 |  |  |  |  |  |  | 88 | 129
 | O=C1C=C(Oc2ccccc2)C(=O)c2oc(-c3ccccc3)nc21 | 46 |  | 94.92 | 14 | 3300 |  |  |  |  |  |  |  | 
 | COc1ccc(OC2=CC(=O)c3nc(-c4ccccc4)sc3C2=O)cc1 | 78 |  | 89.22 | 43 | 1800 |  |  |  | 1100 | 71 | 90 |  | 
 | O=C1C=CC(=O)c2oc(-c3ccccc3)nc21 | < 10 | 21 | 100 | < 4 | 2300 |  |  |  |  |  |  |  | 
 | O=C1C=C(Br)C(=O)c2sc(-c3ccccc3)nc21 | 61 |  | 96.99 | 40 | 1500 |  |  |  |  |  | 91 | 78 | 
 | O=C1C=C(Oc2ccccc2)C(=O)c2oc(-c3ccccc3)cc21 | 37 |  |  | 13 | 2900 | 85.4 |  |  |  |  |  |  | 
38.2 | CCCCCCCCCCCCCCCCOP(=O)([O-])OCC[N+](C)(C)C [MILTEFOSINE] | 50 |  |  |  |  |  |  | ~1 |  |  |  |  | 
 | O=C1C(Nc2ccccc2)=C(Br)C(=O)c2oc(-c3ccccc3)cc21 | 57 |  |  | 63 | 900 | 71.31 |  |  | 800 | 71 |  |  | 102
 | O=C1C(Nc2ccccc2)=C(Br)C(=O)c2sc(-c3ccccc3)nc21 | < 10 | 117 | 85.67 | < 22 | 500 |  |  |  |  |  |  |  | 
 | O=C1C=C(Br)C(=O)c2oc(-c3ccccc3)cc21 | 59 |  |  | 2 | 38000 | 99.25 |  |  |  |  |  |  | 
 | O=C1C=C(Oc2ccc3cccnc3c2)C(=O)c2ccccc21 | < 50 |  | 7.92 | < 13 | 3800 |  | 37 |  |  |  |  |  | 
